Type in all cases: cell-based
One experiment deals with HCT-116. Description: In vitro APC inhibition assay (MTT), HCT-116. The note with it: Homo sapiens, HCT-116, read-out: IC50 (nM) in HCT-116. As for the experimental part:
(§1) The small molecule anti-cancer compounds were evaluated for the ability to inhibit the activity of APC in an in vitro assay.
Reagents required for the assay are: (3-[4,5-Dimethylthiazol-2-yl]-2,5-diphenyltetrazolium bromide; Thiazolyl blue; RPI corp., cat# M92050); RPMI-1640 or Medium of Choice (i.e. DMEM) without phenol red; 1M Hepes; 100 mM NaPyruvate; 1000× Gentamicin (50 mg/ml); 100× Penicillin/Streptomycin/Fungizone; 1×PBS; Triton X-100; 1N HCl and Isopropanol. To make the MTT solution (10×), MTT powder was dissolved into complete RPMI (or DMEM solution) to a final concentration of 5 mg/mL and was sterilized by filtration with a 0.2 μm filter. The MTT solubilization solution contained 10% Triton X-100, 0.1N and 80% isopropanol. MTT solution was diluted to 1× with complete medium at 12 mL per plate. The culture dishes (96 wells) were removed from the incubator and the media was discarded. The plates were washed three times with 1×PBS. 100 μl of 1×MTT solution was added to each well and the plates were incubated in a tissue culture incubator for 2-4 hours, depending on the cell line. The cells were removed from the incubator and the MTT solution was discarded. 200 μl of 1×MTT solubilization solution was added to each well using a multi-channel pipetor and the cells were placed on an orbital shaker for 10 minutes. The results were read on a microtiter plate reader (absorbance=570 nm, reference=700 nm) and data was exported.
(§2) Percent inhibition was determined relative to control reactions without inhibitor, and half maximal inhibitory concentration (IC50) values were determined using a standard four parameter fit to the inhibition data.

Another experiment concerns DLD-1. Kind of experiment: In vitro APC inhibition assay (MTT), DLD-1. The note with it: Homo sapiens. As to the method: as §1
(§3) Reagents required for the assay are: (3-[4,5-Dimethylthiazol-2-yl]-2,5-diphenyltetrazolium bromide; Thiazolyl blue; RPI corp., cat# M92050); RPMI-1640 or Medium of Choice (i.e. DMEM) without phenol red; 1M Hepes; 100 mM NaPyruvate; 1000× Gentamicin (50 mg/ml); 100× Penicillin/Streptomycin/Fungizone; 1×PBS; Triton X-100; 1N HCl and Isopropanol. To make the MTT solution (10×), MTT powder was dissolved into complete RPMI (or DMEM solution) to a final concentration of 5 mg/mL and was sterilized by filtration with a 0.2 μm filter. The MTT solubilization solution contained 10% Triton X-100, 0.1N and 80% isopropanol. MTT solution was diluted to 1× with complete medium at 12 mL per plate. The culture dishes (96 wells) were removed from the incubator and the media was discarded. […] The cells were removed from the incubator and the MTT solution was discarded.
as §2

The next experiment relates to HT-29. Description: In vitro APC inhibition assay (MTT), HT-29. The note with it: Homo sapiens. As for the experimental part: as §1, §3, §2

As a reminder, the IC50 is the concentration at which inhibition is half-maximal.

Take `C[Si](C)(C)C#CCC1CCN(C2CCN(S(=O)(=O)c3ccc(Br)cc3)CC2)CC1`: the IC50 in the experiment on HCT-116 is over 10000 nM; in the experiment with DLD-1 (DLD-1 (truncated APC)) it was 2.9 nM; in the experiment with HT-29 (HT-29 (truncated APC)), 1.7 nM.

With `CC1CCN(C2CCN(S(=O)(=O)c3ccccc3-c3ccc(C(F)(F)F)cc3)CC2)CC1`, the IC50 in the experiment on HCT-116 is over 10000 nM; in the experiment on HT-29 (HT-29, HT-29 (truncated APC)) it was 57 nM.

In the case of `Cc1cc(C)c(S(=O)(=O)N2CCC(N3CC(C)CC(C)C3)CC2)c(C)c1` (centres unmarked), the IC50 in the experiment on HCT-116 was over 10000 nM; with HT-29 (HT-29, HT-29 (truncated APC)) it was 15 nM.

Consider `C#CCOc1ccc(N=[N+]=[N-])cc1S(=O)(=O)N1CCC(N2CCC(C)CC2)CC1`, for which the concentration for half-maximal inhibition (IC50) in the experiment with HCT-116 was over 10000 nM; with DLD-1 (DLD-1, DLD-1 (truncated APC)), 15000 nM; in the experiment on HT-29 (HT-29, HT-29 (truncated APC)), 4500 nM.

Consider `CC1CCN(C2CCN(S(=O)(=O)c3ccc(-c4ccccc4)cc3)CC2)CC1`, for which the IC50 was over 10000 nM in the experiment with HCT-116 and 234 nM in the experiment with HT-29 (HT-29, HT-29 (truncated APC)).

As for `C#CCC1CCCCN1C1CCN(S(=O)(=O)c2ccccc2)CC1` (centres unmarked), the IC50 in the experiment on HCT-116 is over 10000 nM; in the experiment with HT-29 (HT-29, HT-29 (truncated APC)), 1100 nM.

Regarding `CC1CCN(C2CCN(S(=O)(=O)c3ccc(-c4ccc(Cl)cc4)cc3)CC2)CC1`, the IC50 in the experiment with HCT-116 was over 10000 nM; in the experiment on HT-29 (HT-29, HT-29 (truncated APC)), 112 nM.

`C#CCC1CCN(C2CCN(S(=O)(=O)c3ccc(C(=O)c4ccccc4)cc3)CC2)CC1`: the IC50 in the experiment with HCT-116 was over 10000 nM; in the experiment with DLD-1 (DLD-1, DLD-1 (truncated APC)), 4.8 nM; in the experiment on HT-29 (HT-29, HT-29 (truncated APC)) it was 5.2 nM.

As to `C#CCOc1ccc(C(=O)c2ccccc2)cc1S(=O)(=O)N1CCC(N2CCC(C)CC2)CC1`, the IC50 with HCT-116 is over 10000 nM; with DLD-1 (DLD-1, DLD-1 (truncated APC)), 504 nM; in the experiment on HT-29 (HT-29, HT-29 (truncated APC)), 185 nM.

Regarding `C#CCOCCC1CCCCN1C1CCN(S(=O)(=O)c2ccccc2)CC1` (centres unmarked), the IC50 in the experiment with HCT-116 is over 10000 nM; in the experiment on HT-29 (HT-29, HT-29 (truncated APC)), 2300 nM.

In the case of `CC1CCN(C2CCN(S(=O)(=O)c3cccnc3)CC2)CC1`, the IC50 is over 10000 nM with HCT-116 and 2200 nM with HT-29 (HT-29, HT-29 (truncated APC)).

As for `COc1ccccc1-c1ccc(S(=O)(=O)N2CCC(N3CCC(C)CC3)CC2)cc1`, the half-maximal inhibitory concentration (IC50) is over 10000 nM with HCT-116 and 19 nM in the experiment on HT-29 (HT-29, HT-29 (truncated APC)).

In the case of `C[C@H]1CC[N@@+](C)(C2CCN(S(=O)(=O)c3ccccc3)CC2)CC1`, in the experiment with DLD-1 (DLD-1, DLD-1 (truncated APC)), the IC50 was about 7960 nM.

With `Cc1ccc(S(=O)(=O)N2CCC(N3CCC(C)CC3)CC2)cc1`, the 50% inhibitory concentration (IC50) in the experiment with HCT-116 is over 10000 nM; in the experiment on HT-29 (HT-29, HT-29 (truncated APC)) it was 14 nM.

In the case of `CC1CCN(C2CCN(S(=O)(=O)c3ccc4ncsc4c3)CC2)CC1`, the half-inhibitory concentration (IC50) was over 10000 nM in the experiment on HCT-116; 38 nM in the experiment with DLD-1 (DLD-1, DLD-1 (truncated APC)); 26 nM in the experiment on HT-29 (HT-29, HT-29 (truncated APC)).

`CC1CCCN(C2CCN(S(=O)(=O)c3ccc(OC(F)(F)F)cc3)CC2)C1` (centres unmarked): it took 31 nM to reach half-maximal inhibition in the experiment on DLD-1 (DLD-1, DLD-1 (truncated APC)) (IC50).

`CC1CCCN(C2CCN(S(=O)(=O)c3ccc(C(F)(F)F)cc3)CC2)C1` (centres unmarked) displayed an IC50 with DLD-1 (DLD-1, DLD-1 (truncated APC)) of 29 nM.

Take `C#CCOc1ccc(CN2CCC(N3CCC(C)CC3)CC2)cc1N=[N+]=[N-]`: the concentration for half-maximal inhibition (IC50) with HCT-116 was over 10000 nM; in the experiment on DLD-1 (DLD-1, DLD-1 (truncated APC)) it was 921 nM; with HT-29 (HT-29, HT-29 (truncated APC)), 437 nM.

On to `CC1CCN(C2CCN(S(=O)(=O)c3ccc(Cl)cc3)CC2)CC1`, for which the concentration for half-maximal inhibition (IC50) is over 10000 nM in the experiment on HCT-116 and 5.6 nM in the experiment with HT-29 (HT-29, HT-29 (truncated APC)).

Turning to `Cc1cc(C)c(S(=O)(=O)N2CCC(N3CCC(C)OC3)CC2)c(C)c1` (centres unmarked), the half-inhibitory concentration (IC50) in the experiment with HCT-116 was over 10000 nM; in the experiment on HT-29 (HT-29, HT-29 (truncated APC)), 61 nM.

`O=S(=O)(c1cccc2ccccc12)N1CCC(N2CCCC2)CC1` returned an IC50 in the experiment on DLD-1 (DLD-1, DLD-1 (truncated APC)) of 3900 nM.

With `C#CCOCCC1CCN(C2CCN(S(=O)(=O)c3ccccc3)CC2)CC1`, the IC50 in the experiment with HCT-116 is over 10000 nM; with HT-29 (HT-29, HT-29 (truncated APC)), 35 nM.

For the molecule `CC1CCN(C2CCN(S(=O)(=O)c3ccc(Br)cc3)CC2)CC1`, the IC50 with HCT-116 was over 10000 nM; in the experiment on HT-29 (HT-29, HT-29 (truncated APC)), 1.2 nM.

Consider `C#CCC1CCN(C2CCN(S(=O)(=O)c3ccccc3N=[N+]=[N-])CC2)CC1`, for which the concentration for half-maximal inhibition (IC50) with DLD-1 (DLD-1, DLD-1 (truncated APC)) came out at 5300 nM.

For `CC1CCN(C2CCN(S(=O)(=O)c3cccc(C(C)(C)C)c3)CC2)CC1`, in the experiment with DLD-1 (DLD-1, DLD-1 (truncated APC)), 463 nM corresponded to half-maximal inhibition (IC50).

Turning to `CC1CCCN(C2CCN(S(=O)(=O)c3ccc([N+](=O)[O-])cc3)CC2)C1` (centres unmarked), in the experiment with DLD-1 (DLD-1, DLD-1 (truncated APC)), the half-maximal inhibitory concentration (IC50) came to 366 nM.

`COc1ccc(-c2ccc(S(=O)(=O)N3CCC(N4CCC(C)CC4)CC3)cc2)cc1`: the half-inhibitory concentration (IC50) with HCT-116 was over 10000 nM; in the experiment on HT-29 (HT-29, HT-29 (truncated APC)), 288 nM.

The record behind these values is patent US10082496B2, “Targeting emopamil binding protein (EBP) with small molecules that induce an abnormal feedback response by lowering endogenous cholesterol biosynthesis” (Board of Regents of the University of Texas System, priority 2014, dated 2018).
